In brackets after ≈: the same amount, converted by molar mass. Where a name gives a salt, the structure may show the parent alone. Read-outs that look alike come from different tables or passages of the source.
Columns and labels:
[1] = tested on: P388/ADM; assay: Growth inhibition of ADM-resistant P388 leukemia cells (P388/ADM); format: cell-based; conditions: for IC50: Mus musculus; for Enhancement effect: on ADM
[2] = tested on: P388 leukemia cells; assay: Growth inhibition of non-resistant P388 leukemia cells; format: cell-based; conditions: for IC50: Mus musculus
[3] = tested on: ADM-resistant P388 leukemia cells; assay: Antitumor enhancement effect in mice inoculated with ADM-resistant P388 leukemia cells; format: in vivo, CDF1 female mice; conditions: diltiazem HCl 125 mg/kg alone, i.p., 10 days
[4] = tested on: chronic myeloplast
[5] = tested on: VCR-resistant P388 leukemia cells; assay: Antitumor enhancement effects in mice inoculated with VCR-resistant P388 leukemia cells; format: in vivo, CDF1 female mice; conditions: i.p., 10 days
[6] = tested on: K562; assay: Growth inhibition of K562 leukemia cells; format: cell-based, human; conditions: for Enhancement effect: on VCR; for IC50: Homo sapiens, K562, VCR
[7] = tested on: P388 leukemia cells having resistance to vincristine; assay: Growth inhibition of VCR-resistant P388 leukemia cells (P388/VCR); format: cell-based; conditions: for Enhancement effect: on VCR; for IC50: Mus musculus
[8] = tested on: P388 leukemia cells having no resistance or resistance to VCR and ADM and human leukemia cells K562; assay: Antitumor enhancement effects of diltiazem in resistant and non-resistant tumor cells (summary); format: cell-based; conditions: regardless of whether the tumor cells are non-resistant or resistant
From the text: Antitumor enhancement effects of diltiazem in resistant and non-resistant tumor cells: […]

[9] = tested on: K562/VCR; assay: Growth inhibition of VCR-resistant K562 leukemia cells (K562/VCR); format: cell-based, human; conditions: for Enhancement effect: on VCR; for IC50: Homo sapiens, VCR
[10] = tested on: B16 melanoma cells F10; assay: Antitumor enhancement effect in solid tumor cells, B16 F10; format: cell-based; conditions: on VCR, diltiazem 0 μM
[11] = tested on: Colon 26 tumor cells C26 mix; assay: Antitumor enhancement effect in solid tumor cells, C26 mix; format: cell-based; conditions: on VCR, diltiazem 0 μM
[12] = tested on: Colon 26 tumor cells N-5; assay: Antitumor enhancement effect in solid tumor cells, colon 26 N-5; format: cell-based; conditions: on VCR, diltiazem 0 μM
[13] = tested on: B16 melanoma cells BL-6; assay: Antitumor enhancement effect in solid tumor cells, B16 BL-6; format: cell-based; conditions: on VCR, diltiazem 0 μM
[14] = tested on: Colon 26 tumor cells NL-33; assay: Antitumor enhancement effect in solid tumor cells, colon 26 NL-33; format: cell-based; conditions: on VCR, diltiazem 0 μM
[15] = tested on: B16 melanoma cells B16 mix; assay: Antitumor enhancement effect in solid tumor cells, B16 mix; format: cell-based; conditions: on VCR, diltiazem 0 μM
[16] = tested on: B16 melanoma cells B2; assay: Antitumor enhancement effect in solid tumor cells, B16 B2; format: cell-based; conditions: on VCR, diltiazem 0 μM
[17] = tested on: Colon 26 tumor cells KL-2; assay: Antitumor enhancement effect in solid tumor cells, colon 26 KL-2; format: cell-based; conditions: on VCR, diltiazem 0 μM
[18] = tested on: B16 melanoma cells F1; assay: Antitumor enhancement effect in solid tumor cells, B16 F1; format: cell-based; conditions: on VCR, diltiazem 0 μM
[19] = tested on: Colon 26 tumor cells N-1; assay: Antitumor enhancement effect in solid tumor cells, colon 26 N-1; format: cell-based; conditions: on VCR, diltiazem 0 μM
[20] = diltiazem hydrochloride 180 mg per day, 4 days, in addition to vincristine 1 mg/week
[21] = VCR 30 μg/kg + diltiazem HCl 60 mg/kg
[22] = VCR 30 μg/kg + diltiazem HCl 80 mg/kg
[23] = VCR 30 μg/kg + diltiazem HCl 100 mg/kg
[24] = VCR 30 μg/kg + diltiazem HCl 125 mg/kg
[25] = VCR 100 μg/kg + diltiazem HCl 60 mg/kg
[26] = VCR 100 μg/kg + diltiazem HCl 80 mg/kg
[27] = VCR 100 μg/kg + diltiazem HCl 100 mg/kg
[28] = VCR 100 μg/kg + diltiazem HCl 125 mg/kg
[29] = VCR 200 μg/kg + diltiazem HCl 60 mg/kg
[30] = VCR 200 μg/kg + diltiazem HCl 80 mg/kg
[31] = VCR 200 μg/kg + diltiazem HCl 100 mg/kg
[32] = VCR 200 μg/kg + diltiazem HCl 125 mg/kg

SMILES: COc1cccc2c1C(=O)c1c(O)c3c(c(O)c1C2=O)C[C@@](O)(C(=O)CO)C[C@@H]3O[C@H]1C[C@H](N)[C@H](O)[C@H](C)O1 [ADM, doxorubicin]
- IC50 ([1]; ADM, diltiazem 0 μM): 592 ± 76.8 ng/mL (≈ 1090 nM)
- IC50 ([1]; ADM, with diltiazem 10 μM): 133 ± 18.4 ng/mL (≈ 245 nM)
- IC50 ([1]; ADM, with diltiazem 35 μM): 53.7 ± 3.1 ng/mL (≈ 98.8 nM)
- IC50 ([1]; ADM, with diltiazem 100 μM): 30.7 ± 4.1 ng/mL (≈ 56.5 nM)
- IC50 ([1]; read-out: concentration of doxorubicin showing 50% inhibition of the cells, with diltiazem 100 μM): ~30 ng/mL (≈ 55.2 nM)
- IC50 ([1]; read-out: dose for showing 50% inhibition of the tumor cells, doxorubicin alone): 592 ng/mL (≈ 1090 nM)
- Enhancement effect ([1]; diltiazem 0 μM): 1
- IC50 ([2]; P388, ADM, diltiazem 0 μM): 10 ± 2.1 ng/mL (≈ 18.4 nM)
- IC50 ([2]; P388, ADM, with diltiazem 10 μM): 7.7 ± 3.6 ng/mL (≈ 14.2 nM)
- IC50 ([2]; P388, ADM, with diltiazem 35 μM): 6.9 ± 0.7 ng/mL (≈ 12.7 nM)
- IC50 ([2]; P388, ADM, with diltiazem 100 μM): 6 ± 0.4 ng/mL (≈ 11 nM)
- Enhancement effect ([2]; on ADM, diltiazem 0 μM): 1

SMILES: COc1ccc([C@@H]2Sc3ccccc3N(CCN(C)C)C(=O)[C@@H]2OC(C)=O)cc1 [Diltiazem HCl]
- Survival time [3]: 13.0 ± 0 days
- both symptoms (leukocytes, splenoma) [4, 20]: both symptoms were remarkably improved
- duration of the effect [4, 20]: about two
- side effect ([4]; human, in vivo): no side effect was observed
- Survival time [5, 21]: 11.8 ± 1.9 days
- T/V [5, 21]: 111%
- Survival time [5, 22]: 13.8 ± 2.3 days
- T/C [5, 22]: 121%
- T/V [5, 22]: 130%
- Survival time [5, 23]: 12.2 ± 1.3 days
- T/V [5, 23]: 115%
- Survival time [5, 24]: 13.6 ± 1.9 days
- T/C [5, 24]: 119%
- T/V [5, 24]: 125%
- Survival time [5, 25]: 13.8 ± 1.7 days
- T/C [5, 25]: 121%
- T/V [5, 25]: 128%
- T/C [5, 26]: 126%
- T/V [5, 26]: 133%
- T/C [5, 27]: 132%
- T/V [5, 27]: 139%
- T/C [5, 28]: 132%
- T/V [5, 28]: 139%
- T/C [5, 29]: 130%
- T/V [5, 29]: 119%
- T/C [5, 30]: 130%
- T/V [5, 30]: 119%
- T/C [5, 31]: 139%
- T/V [5, 31]: 127%
- Survival time [5, 32]: 17.0 ± 1.2 days
- T/C [5, 32]: 149%
- T/V [5, 32]: 137%
- Survival time ([5]; diltiazem HCl 100 mg/kg alone): 11.8 ± 0.4 days

SMILES: COc1ccc([C@@H]2Sc3ccccc3N(CCN(C)C)C(=O)[C@@H]2OC(C)=O)cc1 [Diltiazem, d-3-acetoxy-cis-2,3-dihydro-5-[2-(dimethylamino)ethyl]-2-(p-methoxyphenyl)-1,5-benzothiazepin-4(5H)-one]
- Enhancement effect ([6]; diltiazem 10 μM): 1.5
- Enhancement effect ([6]; diltiazem 35 μM): 2.3
- Enhancement effect ([6]; diltiazem 100 μM): 3.4
- Enhancement effect ([7]; diltiazem 10 μM, P388/VCR): 9.7
- Enhancement effect ([7]; diltiazem 35 μM, P388/VCR): 28.8
- Enhancement effect ([7]; diltiazem 100 μM, P388/VCR): 54.0
- antitumor activity of the agents (ADM, VCR) [8]: the antitumor activity of the agents is enhanced by diltiazem
- Enhancement effect ([1]; diltiazem 10 μM): 4.5
- Enhancement effect ([1]; diltiazem 35 μM): 11.0
- Enhancement effect ([1]; diltiazem 100 μM): 19.3
- Enhancement effect ([9]; diltiazem 10 μM): 8.7
- Enhancement effect ([9]; diltiazem 35 μM): 48.8
- Enhancement effect ([9]; diltiazem 100 μM): 77.8
- Enhancement effect ([2]; on ADM, diltiazem 10 μM): 1.3
- Enhancement effect ([2]; on ADM, diltiazem 35 μM): 1.4
- Enhancement effect ([2]; on ADM, diltiazem 100 μM): 1.7
- Enhancement effect ([2]; on VCR, diltiazem 10 μM): 1.3
- Enhancement effect ([2]; on VCR, diltiazem 35 μM): 3.4
- Enhancement effect ([2]; on VCR, diltiazem 100 μM): 4.2

SMILES: CC[C@]1(O)C[C@H]2CN(CCc3c([nH]c4ccccc34)[C@@](C(=O)OC)(c3cc4c(cc3OC)N(C=O)[C@H]3[C@@](O)(C(=O)OC)[C@H](OC(C)=O)[C@]5(CC)C=CCN6CC[C@]43[C@@H]65)C2)C1 [VCR, vincristine]
- IC50 ([6]; diltiazem 0 μM): 2.33 ± 0.24 ng/mL (≈ 2.82 nM)
- IC50 ([6]; with diltiazem 10 μM): 1.52 ± 0.09 ng/mL (≈ 1.84 nM)
- IC50 ([6]; with diltiazem 35 μM): 1 ± 0.17 ng/mL (≈ 1.21 nM)
- IC50 ([6]; with diltiazem 100 μM): 0.69 ± 0.1 ng/mL (≈ 0.836 nM)
- Enhancement effect ([6]; diltiazem 0 μM): 1
- IC50 ([7]; P388, VCR, diltiazem 0 μM, P388/VCR): 29.7 ± 2.87 ng/mL (≈ 36 nM)
- IC50 ([7]; P388, VCR, with diltiazem 10 μM, P388/VCR): 3.07 ± 0.09 ng/mL (≈ 3.72 nM)
- IC50 ([7]; P388, VCR, with diltiazem 35 μM, P388/VCR): 1.03 ± 0.06 ng/mL (≈ 1.25 nM)
- IC50 ([7]; P388, VCR, with diltiazem 100 μM, P388/VCR): 0.55 ± 0.17 ng/mL (≈ 0.667 nM)
- IC50 ([7]; P388, read-out: concentration of vincristine showing 50% inhibition of the resistant cells, with diltiazem (hydrochloride) 35 μM or 100 μM): ≤ 1 ng/mL
- Enhancement effect ([7]; diltiazem 0 μM, P388/VCR): 1
- ratio of IC50 dose (enhancement effect of diltiazem) [10]: 1.0
- ratio of IC50 dose (enhancement effect of diltiazem) [11]: 1.0
- ratio of IC50 dose (enhancement effect of diltiazem) [12]: 1.0
- IC50 ([9]; diltiazem 0 μM): 200 ± 16.3 ng/mL (≈ 242 nM)
- IC50 ([9]; with diltiazem 10 μM): 23 ± 2.16 ng/mL (≈ 27.9 nM)
- IC50 ([9]; with diltiazem 35 μM): 4.1 ± 0.36 ng/mL (≈ 4.97 nM)
- IC50 ([9]; with diltiazem 100 μM): 2.57 ± 0.41 ng/mL (≈ 3.12 nM)
- Enhancement effect ([9]; diltiazem 0 μM): 1
- ratio of IC50 dose (enhancement effect of diltiazem) [13]: 1.0
- ratio of IC50 dose (enhancement effect of diltiazem) [14]: 1.0
- ratio of IC50 dose (enhancement effect of diltiazem) [15]: 1.0
- ratio of IC50 dose (enhancement effect of diltiazem) [16]: 1.0
- ratio of IC50 dose (enhancement effect of diltiazem) [17]: 1.0
- ratio of IC50 dose (enhancement effect of diltiazem) [18]: 1.0
- IC50 ([2]; P388, VCR, diltiazem 0 μM): 1.88 ± 0.13 ng/mL (≈ 2.28 nM)
- IC50 ([2]; P388, VCR, with diltiazem 10 μM): 1.43 ± 0.12 ng/mL (≈ 1.73 nM)
- IC50 ([2]; P388, VCR, with diltiazem 35 μM): 0.56 ± 0.06 ng/mL (≈ 0.679 nM)
- IC50 ([2]; P388, VCR, with diltiazem 100 μM): 0.45 ± 0.02 ng/mL (≈ 0.545 nM)
- Enhancement effect ([2]; on VCR, diltiazem 0 μM): 1
- number of leukocytes and splenoma ([4]; after third administration of vincristine 1 mg per week): the number of leukocytes and the splenoma still increased
- number of leukocytes and splenoma ([4]; vincristine 1 mg per week and predonisolone 60 mg per day): the number of leukocytes and the splenoma were temporarity somewhat recovered
- ratio of IC50 dose (enhancement effect of diltiazem) [19]: 1.0
- Survival time ([5]; VCR 30 μg/kg alone): 10.6 ± 2.1 days
- T/C ([5]; VCR 30 μg/kg alone): 93%
- T/V ([5]; VCR 30 μg/kg alone): 100%
- Survival time ([5]; VCR 100 μg/kg alone): 10.8 ± 1.3 days
- T/C ([5]; VCR 100 μg/kg alone): 95%
- T/V ([5]; VCR 100 μg/kg alone): 100%
- Survival time ([5]; VCR 200 μg/kg alone): 12.4 ± 1.0 days
- T/C ([5]; VCR 200 μg/kg alone): 109%
- T/V ([5]; VCR 200 μg/kg alone): 100%

— US4628047A (priority 1982, dated 1986)
